Patent US7390831B2, “Tetracyclic steroid derivatives useful as progesterone receptor modulators” (Janssen Pharmaceutica N.V., priority 2006, dated 2008)
Where two headings read alike, the source gives them in different places.

Key:
[1] = tested on: A549 Human lung carcinoma cells; assay: A549 Human Lung Cell Assay (transfected cells, dexamethasone challenge, luciferase read-out); assay type: cell-based; conditions: test compound 10 min then dexamethasone challenge, 24 h, Luc-assay, read-out: A 549 IC50
Description: A549Human Lung Cell Assay
A549Human lung carcinoma cells were grown in F-12K Nutrient Mixture containing 10% (v/v) fetal bovine serum (FBS; Invitrogen), 2 mM glutamine and 0.15% sodium dicarbonate (Invitrogen).
A549 cells were split 1 to 3 in 175 cm tissue culture flask. The cells were incubated at 37° C. in CO2 incubator until the cells were 95% confluent (typically 24-30 hours).
The following solutions were prepared in sterile tubes: (a) Solution A 1.5 μg/ml of DNA in 8.5 ml OPTI-MEM I Reduced Serum Medium. (GIBCO cat# 31985) and (b) Solution B: 6 μl/ml of DMRIE-C Reagent into […] OPTI-MEM I. The two solutions were combined and mixed gently, then incubated at room temperature for 40 minutes.
The A549 cells prepared above were washed with […] of OPTI-MEM I. The medium was removed and 17 ml of the lipid-DNA complex solution was overlayed onto cells. The cells ere then incubated for 16 h at 37° C. in CO2 incubator. The DNA-containing medium was removed and 30 ml of growth medium was added. (5% Charcoal treated FBS) After 5-6 h, the cells were seeded in a 96 well plate and the cells incubated overnight at 37° C. in CO2 incubator.
To each well was then added 5 μl of test compounds and the cells incubated at 37° C. for 10 min. 5 μL of dexamathasone (CAS [50-02-2]), was then added to each well for challenger and the cells incubated at 37° C. in CO2 incubator for 24 h. 100 μl of Luc-assay buffer was then added into each cell well and the cells incubated for 30 min at room temperature. A 150 μL sample from each well was then transferred into a DYNEX Microlitel plate and read on Top-counter.
(§1) Representative compounds of the present invention were tested according to the procedures described in Examples 45 and 46 above, with results as listed in Table 2 below.

[2] = tested on: T47D human breast cancer cells; assay: T47D Human Breast Cancer Cells Assay (alkaline phosphatase, luminescence); assay type: cell-based
Description: T47D Human Breast Cancer Cells Assay
T47D human breast cancer cells were grown in RPMI medium without phenol red (Invitrogen) containing 10% (v/v) heat-inactivated fetal bovine serum (FBS; Hyclone), 1% (v/v) penicillin-streptomycin (Invitrogen), 1% (w/v) glutamine (Invitrogen), and […] insulin (Sigma). Incubation conditions were 37° C. in a humidified 5% (v/v) carbon dioxide environment.
The cells were plated in 96-well tissue culture plates at 10,000 cells per well in assay medium [RPMI medium without phenol red (Invitrogen) containing 5% (v/v) charcoal-treated FBS (Hyclone) and 1% (v/v) penicillin-streptomycin (Invitrogen)]. Two days later, the medium was decanted and test compound or control were added at a final concentration of 0.1% (v/v) dimethyl sulfoxide in fresh assay medium. Twenty-four hours later, an alkaline phosphatase assay was performed using a SEAP kit (BD Biosciences Clontech, Palo Alto, Calif.). Briefly, the medium was decanted and the cells were fixed for 30 minutes at room temperature with 5% (v/v) formalin (Sigma). The cells were washed once with room temperature Hank's buffered saline solution (Invitrogen). Equal volumes (0.05 mL) of 1× Dilution Buffer, Assay Buffer and 1:20 substrate/enhancer mixture were then added. After 1 hour incubation at room temperature in the dark, the lysate was transferred to a white 96-well plate (Dynex) and luminescence was read using a LuminoSkan Ascent (Thermo Electron, Woburn, Mass.).
as §1

[3] = T47D cells, 24 h with test compound, alkaline phosphatase assay (SEAP kit), read-out: T47D IC50
[4] = read-out: T47D IC50, T47D cells, 24 h with test compound, alkaline phosphatase assay (SEAP kit)
[5] = Homo sapiens, T47D, 24 h, read-out: T47D IC50 (nM), T47D cells, 24 h with test compound, alkaline phosphatase assay (SEAP kit)

Compound | IC50 ([1]; Homo sapiens, A549, A549 cells) [µM] | IC50 [2, 5] [nM] | also measured
1-Hydroxy-1-isopropenyl-10-(4-methanesulfonyl-phenyl)-12a-methyl-2,3,3a,3b,4,5,9,10,10,12,12a-decahydro-1H,8H-11-oxa-naphtho[2,1-e]azulen-7-one [Compound 30] |  |  | IC50 ([1]; A549 cells): > 1 µM
10-(4-Dimethylamino-phenyl)-1-(3-fluoro-phenylethynyl)-1-hydroxy-12a-methyl-2,3,3a,3b,4,5,9,10,12,12 a-decahydro-1H,8H-11-oxa-naphtho[2,1-e]azulen-7-one [Compound 34] |  |  | IC50 [2, 3]: 122 nM
10-(4-Dimethylamino-phenyl)-1-(4-fluoro-phenylethynyl)-1-hydroxy-12a-methyl-2,3,3a,3b,4,5,9,10,12,12a-decahydro-1H,8H-11-oxa-naphtho[2,1-e]azulen-7-one [Compound 35] |  |  | IC50 [2, 3]: 17 nM
10-(4-Dimethylamino-phenyl)-1-ethynyl-1-hydroxy-12a-methyl-2,3,3a,3b,4,5,9,10,12,12a-decahydro-1H,8H-11-oxa-naphtho[2,1-e]azulen-7-one [Compound 3] |  |  | IC50 ([1]; A549 cells): 0.133 µM; IC50 [2, 3]: 7 nM
COc1ccc([C@H]2OC[C@@]3(C)C(CC[C@@]3(O)C#Cc3ccccc3)C3CCC4=CC(=O)CCC4=C32)cc1 (stereo in doubt) [Compound 23, 1-Hydroxy-10-(4-methoxy-phenyl)-12a-methyl-1-phenylethynyl-2,3,3a,3b,4,5,9,10,12,12a-decahydro-1H,8H-11-oxa-naphtho[2,1-e]azulen-7-one] |  |  | IC50 ([1]; A549 cells): 0.237 µM; IC50 [2, 4]: 260 nM
C=C(C)[C@]1(O)CCC2C3CCC4=CC(=O)CCC4=C3[C@@H](c3ccc(N(C)C)cc3)OC[C@@]21C (stereo partly drawn) [Compound 1, 10-(4-Dimethylamino-phenyl)-1-hydroxy-1-isopropenyl-12a methyl-2,3,3a,3b,4,5,9,10,12,12a-decahydro-1H,8H-11-oxa-naphtho[2,1 e]azulen-7-one] | 0.0501 | 0.4 | 
C=C(C)[C@]1(O)CCC2C3CCC4=CC(=O)CCC4=C3[C@@H](c3ccc(SC)cc3)OC[C@@]21C (stereo partly drawn) [Compound 2, 1-Hydroxy-1-isopropenyl-12a-methyl-10-(4-methylsulfanyl-phenyl)-2,3,3a,3b,4,5,9,10,12,12a-decahydro-1H,8H-11-oxa-naphtho[2,1-e]azulen-7-one] | 0.0582 | 5.12 | 
CSc1ccc(C2OCC3(C)C(CCC3(O)C(F)(F)C(F)(F)F)C3CCC4=CC(=O)CCC4=C23)cc1 (stereo not drawn) [Compound 4, 1-Hydroxy-12a-methyl-10-(4-methylsulfanyl-phenyl)-1-pentafluoroethyl-2,3,3a,3b4,5,9,10,12,12a-decahydro-1H,8H-11-oxa-naphtho[2,1-e]azulen-7-one] |  |  | IC50 ([1]; A549 cells): 0.0687 µM; IC50 [2, 3]: 33.2 nM
CSc1ccc([C@H]2OC[C@@]3(C)C(CC[C@@]3(O)C(F)(F)C(F)(F)F)C3CCC4=CC(=O)CCC4=C32)cc1 (stereo partly drawn) [Compound 5] | 0.00706 | 54 | 
COc1ccc([C@H]2OC[C@@]3(C)C(CC[C@@]3(O)C#Cc3ccc(C(F)(F)F)cc3)C3CCC4=CC(=O)CCC4=C32)cc1 (stereo partly drawn) [Compound 6, 1-Hydroxy-10-(4-methoxy-phenyl)-12a-methyl-1-(4-trifluoromethyl-phenylethynyl)-2,3,3a,3b,4,5,9,10,12,12a-decahydro-1H,8H-11-oxa-naphtho[2,1-e]azulen-7-one] |  |  | IC50 ([1]; A549 cells): 0.109 µM; IC50 [2, 4]: 83 nM
CC#C[C@]1(O)CCC2C3CCC4=CC(=O)CCC4=C3[C@@H](c3ccc(N(C)C)cc3)OC[C@@]21C (stereo partly drawn) [Compound 7, 10-(4-Dimethylamino-phenyl)-1-hydroxy-12a-methyl-1-prop-1-ynyl-2,3,3a,3b,4,5,9,10,12,12a-decahydro-1H,8H-11-oxa-naphtho[2,1-e]azulen-7-one] | 0.0162 | 116 | 
COc1ccc([C@H]2OC[C@@]3(C)C(CC[C@@]3(O)C#Cc3ccc(C(C)(C)C)cc3)C3CCC4=CC(=O)CCC4=C32)cc1 (stereo partly drawn) [Compound 9, 1-(4-tert-Butyl-phenylethynyl)-1-hydroxy-10-(4-methoxy-phenyl)-12a-methyl-2,3,3a,3b,4,5,9,10,12,12a-decahydro-1H,8H-11-oxa-naphtho[2,1-e]azulen-7-one] | 0.626 | 264 | 
CN(C)c1ccc([C@H]2OC[C@]3(C)C(=O)CCC3C3CCC4=CC(=O)CCC4=C32)cc1 (stereo partly drawn) [Compound 10, 10-(4-Dimethylamino-phenyl)-12a-methyl-2,3,3a,3b,4,5,9,10,12,12a-decahydro-8H-11-oxa-naphtho[2,1-e]azulene-1,7-dione] | > 3 | 1800 | 
CSc1ccc([C@H]2OC[C@]3(C)C(=O)CCC3C3CCC4=CC(=O)CCC4=C32)cc1 (stereo partly drawn) [Compound 25, 12a-Methyl-10-(4-methylsulfanyl-phenyl) 2,3,3a,3b,4,5,9,10,12,12a-decahydro-8H-11-oxa-naphtho[2,1-e]azulene-1,7-dione] | 1.32 |  | 
C=CC(=O)[C@]1(O)CCC2C3CCC4=CC(=O)CCC4=C3[C@@H](c3ccc(SC)cc3)OC[C@@]21C (stereo partly drawn) [Compound 26] | 2.31 |  | 
CC#C[C@]1(O)CCC2C3CCC4=CC(=O)CCC4=C3[C@@H](c3ccc(OC)cc3)OC[C@@]21C (stereo partly drawn) [Compound 27] |  |  | IC50 ([1]; A549 cells): 0.0415 µM
COc1ccc([C@H]2OC[C@]3(C)C(=O)CCC3C3CCC4=CC(=O)CCC4=C32)cc1 (stereo partly drawn) [Compound 28, 10-(4-Methoxy-phenyl)-12a-methyl-2,3,3a,3b,4,5,9,10,12,12a-decahydro-8H-11-oxa-naphtho[2,1-e]azulene-1,7-dione] | > 3 |  | 
COc1ccc([C@@H]2OC[C@]3(C)C(=O)CCC3C3CCC4=CC(=O)CCC4=C32)cc1 (stereo partly drawn) [Compound 29, 10-α-(4-Methoxy-phenyl)-12a-methyl-2,3,3a,3b,4,5,9,10,12,12a-decahydro-8H-11-oxa-naphtho[2,1-e]azulene-1,7-dione] | > 3 |  | 
CN(C)c1ccc([C@H]2OC[C@@]3(C)C(CC[C@@]3(O)C#Cc3ccccc3)C3CCC4=CC(=O)CCC4=C32)cc1 (stereo partly drawn) [Compound 31, 10-(4-Dimethylamino-phenyl)-1-hydroxy-12a-methyl-1-phenyl ethynyl-2,3,3a,3b,4,5,9,10,12,12a-decahydro-1H,8H-11-oxa-naphtho[2,1-e]azulen-7-one] |  | 78 | 
CN(C)c1ccc([C@H]2OC[C@@]3(C)C(CC[C@@]3(O)C#Cc3ccccc3F)C3CCC4=CC(=O)CCC4=C32)cc1 (stereo partly drawn) [Compound 32, 10-(4-Dimethylamino-phenyl)-1-(2-fluoro-phenylethynyl)-1-hydroxy-12a-methyl-2,3,3a,3b,4,5,9,10,12,12a-decahydro-1H,8H-11-oxa-naphtho[2,1-e]azulen-7-one] |  | 48 | 
CN(C)c1ccc([C@H]2OC[C@@]3(C)C(CC[C@@]3(O)C#Cc3cc(F)cc(F)c3)C3CCC4=CC(=O)CCC4=C32)cc1 (stereo partly drawn) [Compound 36, 1-(3,5-Difluoro-phenylethynyl)-10-(4-dimethylamino-phenyl)-1-hydroxy-12a-methyl-2,3,3a,3b,4,5,9,10,12,12a-decahydro-1H,8H-11-oxa-naphtho[2,1-e]azulen-7-one] |  | 160 | 
CN(C)c1ccc(C2OCC3(C)C(CCC3(O)C(F)(F)C(F)(F)F)C3CCC4=CC(=O)CCC4=C23)cc1 (stereo not drawn) [Compound 37, 10-(4-Dimethylamino-phenyl)-1-hydroxy-12a-methyl-1-penta fluoroethyl 2,3,3a,3b4,5,9,10,12,12a-decahydro-1H,8H-11-oxa-naphtho[2,1-e]azulen-7-one] |  |  | IC50 [2, 3]: 42 nM
C=C1CCOC12CC[C@H]1[C@@H]3CCC4=CC(=O)CCC4=C3[C@@H](c3ccc(N(C)C)cc3)OC[C@@]12C (stereo partly drawn) [Compound 38] |  | 1.1 | 
